Measurements taken from US6930131B2, “Aryl substituted 3-ethoxy phenyl trifluoromethane sulfonamides for the treatment of non-insulin dependent diabetes mellitus (NIDDM)” (Wyeth, priority 2002, dated 2005).

melting point [°C]	SMILES
70 to 72	O=S(=O)(Nc1cccc(CCOCc2ccc(-c3cc(Cl)cc(Cl)c3)cc2)c1)C(F)(F)F [Example 35, N-{3-[2-(3′,5′-Dichloro-biphenyl-4-ylmethoxy)-ethyl]-phenyl)-C,C,C-trifluoro-methanesulfonamide]
84 to 85	O=S(=O)(Nc1cccc(CCOCc2nc(-c3ccc(F)cc3)sc2Br)c1)C(F)(F)F [Example 62, N-(3-{2-[5-Bromo-2-(4-fluoro-phenyl)-thiazol-4-ylmethoxy]-ethyl}-phenyl)-C,C,C-trifluoromethanesulfonamide]
60 to 61	Cc1cccc(-c2ccc(COCCc3cccc(NS(=O)(=O)C(F)(F)F)c3)c(F)c2)c1 [Example 16, C,C,C-Trifluoro-N-{3-[2-(3-fluoro-3′-methyl-biphenyl-4-yl-methoxy)-ethyl]-phenyl}-methanesulfonamide]
47 to 49	O=S(=O)(Nc1cccc(CCOCc2ccc(Oc3ccccc3)cc2)c1)C(F)(F)F [Example 76, N-{3-[2-(4-Phenoxy-benzyloxy)-ethyl]-phenyl}-C,C,C-trifluoro-methane sulfonamide]
112 to 114	Cc1c(COCc2cccc(-c3nn[nH]n3)c2)cccc1-c1ccccc1 [Example 33, 5-[3-(2-Methyl-biphenyl-3-ylmethoxymethyl)-phenyl]-2H-tetrazole]
121 to 122	O=S(=O)(Nc1cccc(CCOCc2ccc(-c3ccc(C(F)(F)F)cc3)cc2F)c1)C(F)(F)F [Example 14, C,C,C-Trifluoro-N-{3-[2-(3-fluoro-4′-trifluoromethyl-biphenyl-4-yl-methoxy)-ethyl]-phenyl}-methanesulfonamide]
71 to 73	O=S(=O)(Nc1cccc(CCOCc2cccc(-c3ccc(F)cc3)n2)c1)C(F)(F)F [Example 64, C,C,C-Trifluoro-N-(3-{2-[6-(4-fluoro-phenyl)-pyridin-2-ylmethoxy]-ethyl}-phenyl)-methanesulfonamide]
85 to 87	O=S(=O)(Nc1cccc(CCOCc2sc3ccccc3c2Cl)c1)C(F)(F)F [Example 66, N-{3-[2-(3-Chloro-benzo[b]thiophen-2-ylmethoxy)-ethyl]-phenyl}-C,C,C-trifluoro-methanesulfonamide]
115 to 116	O=S(=O)(Nc1cccc(CCOCc2csc(-c3ccc(OC(F)(F)F)cc3)n2)c1)C(F)(F)F [Example 61, C,C,C-Trifluoro-N-(3-{2-[2-(4-trifluoromethoxy-phenyl)-thiazol-4-yl-methoxy]-ethyl}-phenyl)-methanesulfonamide]
86 to 87	O=S(=O)(Nc1cccc(CCOCc2csc(-c3ccccc3Cl)n2)c1)C(F)(F)F [Example 60, N-(3-{2-[2-(2-Chloro-phenyl)-thiazol-4-ylmethoxy]-ethyl}-phenyl)-C,C,C-trifluoro-methanesulfonamide]
83 to 86	O=S(=O)(NCCc1cccc(OCc2noc(-c3ccc(C(F)(F)F)cc3)n2)c1)C(F)(F)F [Example 82, N-{2-[3-(5-(4-Trifluoromethyl-phenyl) [1,2,4]oxadiazol-3-ylmethoxy)-phenyl]-ethyl}-C,C,C-trifluoro-methanesulfonamide]
80 to 82	O=S(=O)(Nc1cccc(CCOCc2cc(-c3ccc(F)cc3)ccc2Cl)c1)C(F)(F)F [Example 29, N-{3-[2-(4-Chloro-4′-fluoro-biphenyl-3-ylmethoxy)-ethyl]-phenyl)-C,C,C-trifluoro-methanesulfonamide]
75 to 77	CC(C)(C)c1ccc(-c2nc(COCCc3cccc(NS(=O)(=O)C(F)(F)F)c3)no2)cc1 [Example 81, N-{3-[2-(5-(4-tert-Butyl-phenyl)-[1,2,4]oxadiazol-3-ylmethoxy)-ethyl]-phenyl}-C,C,C-trifluoro-methanesulfonamide]
143 to 144	NC(=O)Nc1ccc(CCOCc2ccccc2-c2ccccc2)cc1 [Example 38, {4-[2-(Biphenyl-2-ylmethoxy)-ethyl]-phenyl}-urea]
